This note sets out measurements from patent US11478474B2, “2-(3′-(hydroxymethyl)-1-methyl-5-((5-(2-methyl-4-(oxetan-3-yl)piperazin-1-yl)pyridin-2-yl)amino)-6-oxo-1,6-dihydro-[3,4′-bipyridin]-2′-yl)-7,7-dimethyl-7,8-dihydro-2H-cyclopenta[4,5]pyrrolo[1,2-a]pyrazin-1(6H)-one as a BTK inhibitor” (HUTCHISON MEDIPHARMA LIMITED, priority 2020, dated 2022).

phosphorylated BTK in Ramos cells, sequence (Q06187 whole entry): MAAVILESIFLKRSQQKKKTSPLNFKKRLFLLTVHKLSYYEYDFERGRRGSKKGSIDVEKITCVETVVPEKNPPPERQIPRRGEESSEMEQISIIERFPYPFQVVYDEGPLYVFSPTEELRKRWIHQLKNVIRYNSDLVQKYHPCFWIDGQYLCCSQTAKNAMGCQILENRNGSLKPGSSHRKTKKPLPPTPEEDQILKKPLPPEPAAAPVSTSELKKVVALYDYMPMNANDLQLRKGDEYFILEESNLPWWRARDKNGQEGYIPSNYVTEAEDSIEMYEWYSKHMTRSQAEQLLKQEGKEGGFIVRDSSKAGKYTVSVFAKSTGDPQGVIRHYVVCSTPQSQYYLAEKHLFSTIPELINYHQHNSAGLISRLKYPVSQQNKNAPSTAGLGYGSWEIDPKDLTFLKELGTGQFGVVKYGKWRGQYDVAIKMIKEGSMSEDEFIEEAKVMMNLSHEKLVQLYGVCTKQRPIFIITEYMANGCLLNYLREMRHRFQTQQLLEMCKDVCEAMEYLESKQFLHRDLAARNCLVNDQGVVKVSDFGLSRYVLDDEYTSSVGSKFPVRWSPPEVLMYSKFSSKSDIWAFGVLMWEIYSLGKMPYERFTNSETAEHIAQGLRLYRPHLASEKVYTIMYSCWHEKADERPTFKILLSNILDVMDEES

For this experiment, the target named is phosphorylated BTK in Ramos cells (Homo sapiens (Human), UniProt Q06187). The experiment is described as follows: Determination of phosphorylated BTK in Ramos cells (BTK phospho-Y223 HTRF). Type of experiment: cell-based. To be noted: anti-human IgM + hydrogen peroxide stimulation. The essentials:
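BTK Y223 phosphorylation measured by HTRF (665/615 nm) in lysates of Ramos cells. Cells were serum-starved 2 h, exposed to compound for 1 h (final 0.00018–3.0 μM, 0.3% DMSO), then stimulated 10 min with 10 μg/mL anti-IgM and 3.3 mM H2O2. IC50 derived from percent inhibition between unstimulated and stimulated controls.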
A general note: In TR-FRET formats the signal depends on donor and acceptor labels being close together.
`C[C@H]1CN(C2COC2)CCN1c1ccc(Nc2cc(-c3ccnc(-n4ccn5c(c(F)c6cc(F)ccc65)c4=O)c3CO)cn(C)c2=O)nc1` [Compound 60]: the IC50 (in general, the concentration that gives 50% inhibition) was found to be 3 nM. On to `C[C@H]1CN(C2COC2)CCN1c1ccc(Nc2cc(-c3ccnc(-n4ccn5c6c(cc5c4=O)CC(F)(F)CC6)c3CO)cn(C)c2=O)nc1` [Compound 58], for which the IC50 was 4 nM. `C[C@H]1CN(C2COC2)CCN1c1ccc(Nc2cc(-c3ccnc(-n4ccn5c6c(cc5c4=O)CCC6)c3CO)cn(C)c2=O)nc1` [Compound 64]: the IC50 came out at 10 nM. On to `CN1CCN(C(=O)c2ccc(Nc3cc(-c4ccnc(-n5ccn6c7c(cc6c5=O)CC(C)(C)C7)c4CO)cn(C)c3=O)nc2)CC1` [Compound 48], for which the IC50 came out at 6 nM. For `CC1CCc2cc3c(=O)n(-c4nccc(-c5cc(Nc6ccc(N7CCN(C8COC8)C[C@@H]7C)cn6)c(=O)n(C)c5)c4CO)ccn3c2C1` (mixture of isomers) [Compound 78], the IC50 is 3 nM. For `C[C@H]1CN(C2COC2)CCN1c1ccc(Nc2cc(-c3ccnc(-n4cnn5c6c(cc5c4=O)CC(C)(C)C6)c3CO)cn(C)c2=O)nc1` [Compound 63], the IC50 stood at 5 nM. `C[C@H]1CN(C2COC2)CCN1c1ccc(Nc2cc(-c3ccnc(-n4ncn5c6c(cc5c4=O)CC(C)(C)C6)c3CO)cn(C)c2=O)nc1` [Compound 79]: the IC50 came to 2 nM. As to `C[C@H]1CN(C2COC2)CCN1c1ccc(Nc2cc(-c3ccnc(-n4ccn5c(cc6cc(F)ccc65)c4=O)c3CO)cn(C)c2=O)nc1` [Compound 75], the IC50 was 7 nM.

Regarding `C[C@@H]1CN(c2ccc(Nc3cc(-c4ccnc(-n5ccn6c7c(cc6c5=O)CCC7)c4CO)cn(C)c3=O)nc2)[C@@H](C)CN1C1COC1` [Compound 2, 2-(5-((5-((2S,5R)-2,5-dimethyl-4-(oxetan-3-yl)piperazin-1-yl)pyridin-2-yl)amino)-3′-(hydroxymethyl)-1-methyl-6-oxo-1,6-dihydro-[3,4′-bispyridin]-2′-yl)-7,8-dihydro-2H-cyclopenta[4,5]pyrrolo[1,2-a]pyrazin-1(6H)-one], the IC50 came out at 10 nM. Take `CCn1cc(Nc2cc(-c3ccnc(-n4ccn5c6c(cc5c4=O)CC(C)(C)C6)c3CO)cn3ncnc23)nn1` [Compound 71]: the IC50 is 6 nM. Turning to `C[C@H]1CN(C2COC2)CCN1c1ccc(Nc2cc(-c3ccnc(-n4ccn5c(c(F)c6ccccc65)c4=O)c3CO)cn(C)c2=O)nc1` [Compound 57], the IC50 came to 3 nM.

Turning to `C[C@H]1CN(C)CCN1c1ccc(Nc2cc(-c3ccnc(-n4ccn5c6c(cc5c4=O)CC(C)(C)C6)c3CO)cn(C)c2=O)nc1` [Compound 26], the IC50 came out at 7 nM. For the compound `C[C@H]1CN(C2COC2)CCN1c1ccc(Nc2cc(-c3ccnc(-n4ccn5c6c(cc5c4=O)CC(C)(C)C6)c3CO)n[nH]c2=O)nc1` [Compound 49], the IC50 is 1 nM. Then `Cn1cc(Nc2cc(-c3ccnc(-n4ccn5c6c(cc5c4=O)CC(C)(C)C6)c3CO)cn(C)c2=O)nn1` [Compound 28], with 2 nM; and `COCCN(C)c1ccc(Nc2cc(-c3ccnc(-n4ccn5c6c(cc5c4=O)CC(C)(C)C6)c3CO)cn(C)c2=O)nc1` [Compound 50], with 2 nM; and `C[C@H]1CN(C2COC2)CCN1c1ccc(Nc2cc(-c3ccnc(-n4ccn5c6c(cc5c4=O)CC(C)(C)C6)c3CO)cn3ncnc23)nc1` [Compound 21], with 15 nM.

Regarding `C[C@@H]1CN(c2ccc(Nc3cc(-c4ccnc(-n5ccn6c7c(cc6c5=O)CC(C)(C)C7)c4CO)cn(C)c3=O)nc2)[C@@H](C)CN1C1COC1` [Compound 27], the IC50 is 1 nM. Turning to `C[C@H]1CN(C2COC2)CCN1c1ccc(Nc2cc(-c3ccnc(-n4ccn5c6c(cc5c4=O)CCC(F)(F)C6)c3CO)cn(C)c2=O)nc1` [Compound 56], the IC50 turned out to be 24 nM.

`C[C@H]1CN(C2COC2)CCN1c1ccc(Nc2cc(-c3ccnc(-n4ccn5c(cc6ccccc65)c4=O)c3CO)cn(C)c2=O)nc1` [Compound 74]: the IC50 stood at 11 nM. Then `C[C@H]1CN(C2COC2)CCN1c1ccc(Nc2cc(-c3ccnc(-n4ccn5c6c(cc5c4=O)CC(C)(C)C6)c3CO)nn(C)c2=O)nc1` [Compound 22], with 18 nM. With `Cn1cc(-c2ccnc(-n3ccn4c5c(cc4c3=O)CC(C)(C)C5)c2CO)cc(Nc2cn(CCF)nn2)c1=O` [Compound 31], the IC50 was 6 nM. Turning to `C[C@H]1CN(C2COC2)CCN1c1cnc(Nc2cc(-c3ccnc(-n4ccn5c6c(cc5c4=O)CC(C)(C)C6)c3CO)cn(C)c2=O)cn1` [Compound 43], the IC50 is 2 nM. On to `C[C@@H]1CN(c2ccc(Nc3cc(-c4ccnc(-n5ccn6c(c(F)c7ccccc76)c5=O)c4CO)cn(C)c3=O)nc2)[C@@H](C)CN1C1COC1` [Compound 59], for which the IC50 turned out to be 1 nM. Take `COCCN1CCN(c2ccc(Nc3cc(-c4ccnc(-n5ccn6c7c(cc6c5=O)CC(C)(C)C7)c4CO)cn(C)c3=O)nc2)[C@@H](C)C1` [Compound 8]: the IC50 amounted to 2 nM. For the compound `C[C@H]1CN(C2COC2)CCN1c1cnc(Nc2cc(-c3ccnc(-n4ccn5c6c(cc5c4=O)CC(C)(C)C6)c3CO)cn(C)c2=O)nc1` [Compound 44], the IC50 was found to be 18 nM. As to `C[C@H]1CN(C2COC2)CCN1c1ccc(Nc2cc(-c3ccnc(-n4ccn5c6c(cc5c4=O)CC(C)(C)C6)c3CO)cn(C)c2=O)nc1` [Compound 19], the IC50 is 4 nM. Turning to `Cn1cc(-c2ccnc(-n3ccn4c5c(cc4c3=O)CC(C)(C)C5)c2CO)cc(Nc2ccc(N3CCN(C4COC4)CC3)cn2)c1=O` [Compound 9], the IC50 came out at 4 nM.

Regarding `C[C@H]1CN(C2COC2)CCN1c1ccc(Nc2cc(-c3ccnc(-n4ccn5c6c(cc5c4=O)CC(C)(C)C6)c3CO)cn3c(F)cnc23)nc1` [Compound 23], the IC50 turned out to be 30 nM.
